Experiments:
barnyardgrass [1] = test: Test A preemergence; assay type: in vivo, Echinochloa crus-galli
Procedure, shortened: (§1)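 Scoring: eye-based comparison with untreated controls, 0 for no effect through 100 for complete control, at about day 10. Treatments: directed soil spray preemergence; foliar spray postemergence on 2–10 cm plants at the one- to two-leaf stage. Medium: loam soil with sand.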

large (Lg) crabgrass [2] = test: Test A preemergence; assay type: in vivo, Digitaria sanguinalis
Procedure, shortened: as §1

giant foxtail [3] = test: Test A preemergence; assay type: in vivo, Setaria faberii
Procedure, shortened: as §1

morningglory [4] = test: Test A preemergence; assay type: in vivo, Ipomoea spp.
Procedure, shortened: as §1

pigweed [5] = test: Test A preemergence; assay type: in vivo, Amaranthus retroflexus
Procedure, shortened: as §1

velvetleaf [6] = test: Test A preemergence; assay type: in vivo, Abutilon theophrasti
Procedure, shortened: as §1

wheat [7] = test: Test A preemergence; assay type: in vivo, Triticum aestivum
Procedure, shortened: as §1

corn [8] = test: Test A preemergence; assay type: in vivo, Zea mays
Procedure, shortened: as §1

barnyardgrass [9] = test: Test A postemergence; assay type: in vivo, Echinochloa crus-galli
Procedure, shortened: as §1

large (Lg) crabgrass [10] = test: Test A postemergence; assay type: in vivo, Digitaria sanguinalis
Procedure, shortened: as §1

giant foxtail [11] = test: Test A postemergence; assay type: in vivo, Setaria faberii
Procedure, shortened: as §1

morningglory [12] = test: Test A postemergence; assay type: in vivo, Ipomoea spp.
Procedure, shortened: as §1

pigweed [13] = test: Test A postemergence; assay type: in vivo, Amaranthus retroflexus
Procedure, shortened: as §1

velvetleaf [14] = test: Test A postemergence; assay type: in vivo, Abutilon theophrasti
Procedure, shortened: as §1

wheat [15] = test: Test A postemergence; assay type: in vivo, Triticum aestivum
Procedure, shortened: as §1

corn [16] = test: Test A postemergence; assay type: in vivo, Zea mays
Procedure, shortened: as §1

rice [17] = test: Test B flooded paddy test; assay type: in vivo, Oryza sativa; conditions: Flood, 250 g ai/ha; 0 to 100 scale where 0 is no effect and 100 is complete control
Procedure, shortened: (§2)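 Evaluation is visual, against untreated controls, 13 to 15 days after treatment. Before treatment, plants reached the 2-leaf stage; pots were then flooded 3 cm deep, compound was added to the water, and that level was maintained. Ratings run 0 to 100, with 100 meaning complete control.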

sedge, umbrella [18] = test: Test B flooded paddy test; assay type: in vivo, Cyperus difformis; conditions: Flood, 250 g ai/ha; 0 to 100 scale where 0 is no effect and 100 is complete control
Procedure, shortened: as §2

Heteranthera limosa = test: Test B flooded paddy test; assay type: in vivo; conditions: Flood, 250 g ai/ha; 0 to 100 scale where 0 is no effect and 100 is complete control
Procedure, shortened: as §2

barnyardgrass [19] = test: Test B flooded paddy test; assay type: in vivo, Echinochloa crus-galli; conditions: Flood, 250 g ai/ha; 0 to 100 scale where 0 is no effect and 100 is complete control
Procedure, shortened: as §2

rice [20] = test: Test C flooded paddy test; assay type: in vivo, Oryza sativa; conditions: Flood, scale 0 to 100 (0 no effect, 100 complete control), 13 to 15 days
Description: (§3) At time of treatment, test pots were flooded to 3 cm above the soil surface, treated by application of test compounds directly to the paddy water, and then maintained at that water depth for the duration of the test. Treated plants and controls were maintained in a greenhouse for 13 to 15 days, after which time all species were compared to controls and visually evaluated. […] A dash (-) response means no test result.

sedge, umbrella [21] = test: Test C flooded paddy test; assay type: in vivo, Cyperus difformis; conditions: Flood, scale 0 to 100 (0 no effect, 100 complete control), 13 to 15 days
Description: as §3

ducksalad = test: Test C flooded paddy test; assay type: in vivo, Heteranthera limosa; conditions: Flood, scale 0 to 100 (0 no effect, 100 complete control), 13 to 15 days
Description: as §3

barnyardgrass [22] = test: Test C flooded paddy test; assay type: in vivo, Echinochloa crus-galli; conditions: Flood, scale 0 to 100 (0 no effect, 100 complete control), 13 to 15 days
Description: as §3

[23] = 125 g ai/ha, 0 to 100 scale where 0 is no effect and 100 is complete control
[24] = 500 g ai/ha, 0 to 100 scale, 0 no effect, 100 complete control, approx. 10 days
[25] = 500 g ai/ha, 0 to 100 scale, 0 no effect, 100 complete control

Brc1cnc(Oc2ccccc2-n2cc(Br)cn2)nc1 [Compound 8]
Barnyardgrass plant response rating (barnyardgrass [1]; [23]): 50 | Barnyardgrass plant response rating (barnyardgrass [1]; [24]): 90 | Crabgrass, Large plant response rating (large (Lg) crabgrass [2]; [23]): 80 | Crabgrass, Large plant response rating (large (Lg) crabgrass [2]; [24]): 100 | Foxtail, Giant plant response rating (giant foxtail [3]; [23]): 70 | Foxtail, Giant plant response rating (giant foxtail [3]; [24]): 100 | Morningglory plant response rating (morningglory [4]; [23]): 20 | Morningglory plant response rating (morningglory [4]; [24]): 30 | Pigweed plant response rating (pigweed [5]; [23]): 90 | Pigweed plant response rating (pigweed [5]; [24]): 100 | Velvetleaf plant response rating (velvetleaf [6]; [23]): 100 | Velvetleaf plant response rating (velvetleaf [6]; [24]): 100 | Wheat plant response rating (wheat [7]; [23]): 0 | Wheat plant response rating (wheat [7]; [24]): 0 | Corn plant response rating (corn [8]; [23]): 0 | Corn plant response rating (corn [8]; [24]): 0 | Plant response rating, Barnyardgrass (barnyardgrass [9]; [23]): 30 | Plant response rating, Barnyardgrass (barnyardgrass [9]; [25]): 90 | Plant response rating, Crabgrass, Large (large (Lg) crabgrass [10]; [23]): 50 | Plant response rating, Crabgrass, Large (large (Lg) crabgrass [10]; [25]): 90 | Plant response rating, Foxtail, Giant (giant foxtail [11]; [23]): 50 | Plant response rating, Foxtail, Giant (giant foxtail [11]; [25]): 90 | Plant response rating, Morningglory (morningglory [12]; [23]): 70 | Plant response rating, Morningglory (morningglory [12]; [25]): 100 | Plant response rating, Pigweed (pigweed [13]; [23]): 100 | Plant response rating, Pigweed (pigweed [13]; [25]): 100 | Plant response rating, Velvetleaf (velvetleaf [14]; [23]): 100 | Plant response rating, Velvetleaf (velvetleaf [14]; [25]): 100 | Plant response rating, Wheat (wheat [15]; [23]): 0 | Plant response rating, Wheat (wheat [15]; [25]): 20 | Plant response rating, Corn (corn [16]; [23]): 0 | Plant response rating, Corn (corn [16]; [25]): 30 | Plant response rating, Rice (rice [17]): 30 | Plant response rating, Sedge, Umbrella (sedge, umbrella [18]): 80 | Plant response rating, Ducksalad (Heteranthera limosa): 100 | Plant response rating, Barnyardgrass (barnyardgrass [19]): 0 | Plant response rating, Rice (rice [20]; 31 g ai/ha): 0 | Plant response rating, Rice (rice [20]; 62 g ai/ha): 0 | Plant response rating, Rice (rice [20]; 125 g ai/ha): 10 | Plant response rating, Rice (rice [20]; 250 g ai/ha): 10 | Plant response rating, Sedge, Umbrella (sedge, umbrella [21]; 31 g ai/ha): 0 | Plant response rating, Sedge, Umbrella (sedge, umbrella [21]; 62 g ai/ha): 50 | Plant response rating, Sedge, Umbrella (sedge, umbrella [21]; 125 g ai/ha): 75 | Plant response rating, Sedge, Umbrella (sedge, umbrella [21]; 250 g ai/ha): 85 | Plant response rating, Ducksalad (ducksalad; 31 g ai/ha): 0 | Plant response rating, Ducksalad (ducksalad; 62 g ai/ha): 40 | Plant response rating, Ducksalad (ducksalad; 125 g ai/ha): 50 | Plant response rating, Ducksalad (ducksalad; 250 g ai/ha): 70 | Plant response rating, Barnyardgrass (barnyardgrass [22]; 31 g ai/ha): 0 | Plant response rating, Barnyardgrass (barnyardgrass [22]; 62 g ai/ha): 0 | Plant response rating, Barnyardgrass (barnyardgrass [22]; 125 g ai/ha): 0 | Plant response rating, Barnyardgrass (barnyardgrass [22]; 250 g ai/ha): 0

Cc1ccc(Oc2ncc(Cl)cn2)c(-n2cc(Br)cn2)c1 [Compound 40]
Plant response rating, Barnyardgrass (barnyardgrass [1]; [23]): 40 | Barnyardgrass plant response rating (barnyardgrass [1]; [24]): 50 | Plant response rating, Crabgrass, Large (large (Lg) crabgrass [2]; [23]): 60 | Crabgrass, Large plant response rating (large (Lg) crabgrass [2]; [24]): 80 | Plant response rating, Foxtail, Giant (giant foxtail [3]; [23]): 10 | Foxtail, Giant plant response rating (giant foxtail [3]; [24]): 60 | Plant response rating, Morningglory (morningglory [4]; [23]): 0 | Morningglory plant response rating (morningglory [4]; [24]): 0 | Plant response rating, Pigweed (pigweed [5]; [23]): 0 | Pigweed plant response rating (pigweed [5]; [24]): 50 | Plant response rating, Velvetleaf (velvetleaf [6]; [23]): 50 | Velvetleaf plant response rating (velvetleaf [6]; [24]): 70 | Plant response rating, Wheat (wheat [7]; [23]): 0 | Wheat plant response rating (wheat [7]; [24]): 0 | Plant response rating, Corn (corn [8]; [23]): 0 | Corn plant response rating (corn [8]; [24]): 0 | Plant response rating, Barnyardgrass (barnyardgrass [9]; [23]): 0 | Plant response rating, Barnyardgrass (barnyardgrass [9]; [25]): 20 | Plant response rating, Crabgrass, Large (large (Lg) crabgrass [10]; [23]): 50 | Plant response rating, Crabgrass, Large (large (Lg) crabgrass [10]; [25]): 70 | Plant response rating, Foxtail, Giant (giant foxtail [11]; [23]): 10 | Plant response rating, Foxtail, Giant (giant foxtail [11]; [25]): 60 | Plant response rating, Morningglory (morningglory [12]; [23]): 70 | Plant response rating, Morningglory (morningglory [12]; [25]): 100 | Plant response rating, Pigweed (pigweed [13]; [23]): 40 | Plant response rating, Pigweed (pigweed [13]; [25]): 60 | Plant response rating, Velvetleaf (velvetleaf [14]; [23]): 100 | Plant response rating, Velvetleaf (velvetleaf [14]; [25]): 100 | Plant response rating, Wheat (wheat [15]; [23]): 0 | Plant response rating, Wheat (wheat [15]; [25]): 0 | Plant response rating, Corn (corn [16]; [23]): 0 | Plant response rating, Corn (corn [16]; [25]): 0 | Plant response rating, Rice (rice [17]): 15 | Plant response rating, Sedge, Umbrella (sedge, umbrella [18]): 80 | Plant response rating, Ducksalad (Heteranthera limosa): 80 | Plant response rating, Barnyardgrass (barnyardgrass [19]): 20 | Plant response rating, Rice (rice [20]; 31 g ai/ha): 0 | Plant response rating, Rice (rice [20]; 62 g ai/ha): 0 | Plant response rating, Rice (rice [20]; 125 g ai/ha): 0 | Plant response rating, Rice (rice [20]; 250 g ai/ha): 0 | Plant response rating, Sedge, Umbrella (sedge, umbrella [21]; 31 g ai/ha): 50 | Plant response rating, Sedge, Umbrella (sedge, umbrella [21]; 62 g ai/ha): 75 | Plant response rating, Sedge, Umbrella (sedge, umbrella [21]; 125 g ai/ha): 75 | Plant response rating, Sedge, Umbrella (sedge, umbrella [21]; 250 g ai/ha): 75 | Plant response rating, Ducksalad (ducksalad; 31 g ai/ha): 0 | Plant response rating, Ducksalad (ducksalad; 62 g ai/ha): 0 | Plant response rating, Ducksalad (ducksalad; 125 g ai/ha): 40 | Plant response rating, Ducksalad (ducksalad; 250 g ai/ha): 60 | Plant response rating, Barnyardgrass (barnyardgrass [22]; 31 g ai/ha): 0 | Plant response rating, Barnyardgrass (barnyardgrass [22]; 62 g ai/ha): 0 | Plant response rating, Barnyardgrass (barnyardgrass [22]; 125 g ai/ha): 15 | Plant response rating, Barnyardgrass (barnyardgrass [22]; 250 g ai/ha): 15

From patent US9695155B2, “Herbicidal substituted pyrimidinyloxy benzene compounds” (E. I. DU PONT DE NEMOURS AND COMPANY, priority 2013, dated 2017)
